Here are results for 9 compounds from patent US20230203029A1 (priority 2020, published 2023).

By IC50 is commonly meant the concentration that gives 50% inhibition.

This test deals with T1, human MERTK cytoplasmic domain (Homo sapiens, UniProt Q12866).
T1 construct: human MERTK cytoplasmic domain (Carna Biosciences 08-108); purchased Carna Biosciences 08-108
T1 sequence (Q12866 527-999): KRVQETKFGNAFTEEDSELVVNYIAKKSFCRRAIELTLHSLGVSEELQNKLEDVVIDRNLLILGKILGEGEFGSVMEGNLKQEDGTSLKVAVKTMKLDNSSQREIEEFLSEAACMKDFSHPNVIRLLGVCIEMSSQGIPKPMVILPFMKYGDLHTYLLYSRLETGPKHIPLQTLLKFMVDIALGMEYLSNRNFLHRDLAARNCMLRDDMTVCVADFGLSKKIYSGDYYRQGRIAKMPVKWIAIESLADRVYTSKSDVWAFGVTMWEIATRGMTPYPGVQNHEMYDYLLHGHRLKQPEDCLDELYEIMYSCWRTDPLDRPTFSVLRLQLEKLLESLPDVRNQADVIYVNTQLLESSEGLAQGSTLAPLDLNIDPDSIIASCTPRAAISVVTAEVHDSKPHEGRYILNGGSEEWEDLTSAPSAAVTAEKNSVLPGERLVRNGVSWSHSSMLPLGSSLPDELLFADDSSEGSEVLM
The experiment in a line: biochemical. As to conditions: 30 uM ATP; read-out: Assay 1a Mer IC50 30 uM ATP. The protocol:
Assay 1a—MERTK HTRF KinEASE-TK Assay
The enzymatic reaction was carried out for 30 min at room temperature. 10 μL TK Antibody-Cryptate/Streptavidin-XL665 (Cisbio 610SAXLG) was then added for 60 min, including EDTA containing detection buffer (Cisbio 62SDBRDF) to stop the reaction.
Turning to `O=C(Nc1ccc(Nc2ccnc3cnc(C(=O)N4CCC4)cc23)cc1)c1cccn(-c2ccccc2)c1=O` [Example 5.4, N-[4-[[6-(azetidine-1-carbonyl)-1,7-naphthyridin-4-yl]amino]phenyl]-2-oxo-1-phenyl-pyridine-3-carboxamide], the IC50 turned out to be 535 nM.
As for `CC(C)n1cc(C(=O)Nc2ccc(Nc3ccnc4cnc(C(=O)NOCCO)cc34)cc2)c(=O)n(-c2ccc(F)cc2)c1=O` [Example 7, 4-[4-[[3-(4-fluorophenyl)-1-isopropyl-2,4-dioxo-pyrimidine-5-carbonyl]amino]anilino]-N-(2-hydroxyethoxy)-1,7-naphthyridine-6-carboxamide], the figure is 392 nM.
As for `CC(C)n1cc(C(=O)Nc2ccc(Nc3ccnc4cnc(C(=O)NCCN(C)C)cc34)cc2)c(=O)n(-c2ccc(F)cc2)c1=O` [Example 7.1, N-[2-(dimethylamino)ethyl]-4-[4-[[3-(4-fluorophenyl)-1-isopropyl-2,4-dioxo-pyrimidine-5-carbonyl]amino]anilino]-1,7-naphthyridine-6-carboxamide], the figure is 54 nM; as for `CN1CCC(NC(=O)c2cc3c(Oc4ccc(NC(=O)c5cccn(-c6ccccn6)c5=O)cc4)ccnc3cn2)CC1` [Example 8, N-(1-methyl-4-piperidyl)-4-[4-[[2-oxo-1-(2-pyridyl)pyridine-3-carbonyl]amino]phenoxy]-1,7-naphthyridine-6-carboxamide], 154 nM; as for `Cc1c(C(=O)Nc2ccc(Oc3ccnc4cnc(C(=O)NC5CCN(C)CC5)cc34)cc2)c(=O)n(-c2ccccc2)n1C` [Example 8.3, 4-[4-[(1,5-Dimethyl-3-oxo-2-phenyl-pyrazole-4-carbonyl)amino]phenoxy]-N-(1-methyl-4-piperidyl)-1,7-naphthyridine-6-carboxamide], 133 nM.
As for `Cc1c(C(=O)Nc2ccc(Oc3ccnc4cnc(C(=O)NC5CCN(C)CC5)cc34)cc2)c(=O)n(-c2ccccc2)n1CC(C)(C)O` [Example 8.4, 4-[4-[[1-(2-hydroxy-2-methyl-propyl)-5-methyl-3-oxo-2-phenyl-pyrazole-4-carbonyl]amino]phenoxy]-N-(1-methyl-4-piperidyl)-1,7-naphthyridine-6-carboxamide], the figure is 245 nM; as for `O=C(Nc1ccc(Oc2ccnc3cnc(N4CCNCC4)cc23)cc1)c1cccn(-c2ccccn2)c1=O` [Example 12.1, 2-oxo-N-[4-[(6-piperazin-1-yl-1,7-naphthyridin-4-yl)oxy]phenyl]-1-(2-pyridyl)pyridine-3-carboxamide], 722 nM.
`Cc1c(C(=O)Nc2ccc(Oc3ccnc4cnc(N5CCNCC5)cc34)cc2)c(=O)n(-c2ccccc2)n1C` [Example 12.8, 1,5-dimethyl-3-oxo-2-phenyl-N-[4-[(6-piperazin-1-yl-1,7-naphthyridin-4-yl)oxy]phenyl]pyrazole-4-carboxamide]: the IC50 is 134 nM.
As for `CN1CCC(NC(=O)c2cc3c(Oc4cnc(NC(=O)c5cccn(-c6ccc(F)cc6)c5=O)nc4)ccnc3cn2)CC1` [Example 19, 4-[2-[[1-(4-Fluorophenyl)-2-oxo-pyridine-3-carbonyl]amino]pyrimidin-5-yl]oxy-N-(1-methyl-4-piperidyl)-1,7-naphthyridine-6-carboxamide], the figure is 137 nM.
